Several values for one entry are separate records, joined by “and”; a condition that tells them apart may be missing. Identical values can stand only once.
Experiments:
[1] = test system: PBMCs in the presence of HSV-1; experiment: Immune gene expression and proliferation of PBMCs from subjects dosed once with SADBE; assay type: cell-based, human
From the text: Introduction: Differences in immune characteristics, including immune gene expression by peripheral blood mononuclear cells (PBMCs), correlating with herpes labialis and good or poor immune control of herpes simplex virus type 1 (HSV-1) (i.e., frequency of herpes labialis episodes), and how these characteristics change after dosing with squaric acid dibutyl ester (SADBE), were investigated. Methods: PBMCs were collected from persons positive for IgG against HSV-1 and having frequent (self-reported 6 or more episodes in the prior 12 months), infrequent (1 or 2 episodes in the prior 12 months), or no herpes labialis outbreaks in the prior 12 months. The PBMCs were tested for proliferation against HSV-1 and a fungal antigen (Candida) and immune gene expression in the presence of HSV-1 and Candida. On day 1 after blood collection the subjects with frequent outbreaks were dosed topically on the arm once with 2% SADBE in DMSO, and their PBMCs were collected and tested 2 weeks later and 8 weeks later.
Doses were applied by dipping a cotton swab in a 1-ml vial of liquid study medication, then swabbing a spot on the inner aspect of the upper arm over an area of about 10 to 15 mm diameter encircled by petroleum jelly. After application, the spot was covered by TEGADERM™ dressing, and subjects were advised to remove the dressing and wipe the spot with a wet cloth 3 hours later. The weight of the vial of study medication with the vial standing in it was measured immediately before and immediately after dosing each subject. The difference was the net mass of drug applied. In most cases, 10 mg to 20 mg of drug solution was applied to the arm.

[2] = test system: common warts and alopecia areata; settings: solutions of 0.05% to 2.0% weight/volume, vehicle almost always acetone, applied repeatedly (Buckley et al., Lee et al.); cited from earlier work
[3] = Residual SADBE and SAMBE in patches after 12 hours on guinea pigs; assay type: in vivo, guinea pig
Experimental: Patches were removed from the pigs at the indicated times and immediately the reservoir portion of the patch was cut out and placed in a 50 ml tube with 10 ml of DMSO. The tubes of DMSO with patches were transported to the Squarex laboratory, shaken at 200 rpm for 1 hour or more, and then the DMSO from each tube was placed in an injection vial and analyzed for SADBE content by HPLC on a C18 column with the program SADBE3-50 ul. SADBE elutes in this program at about 24.0 minutes and absorbs at 255 nm, so the area of the 24.0 min peak at 255 nm was used to quantify SADBE. The SADBE degradation product squaric acid monobutyl ester (SAMBE) was also quantified by 255 nm area under the curve at the elution time of 12.7 minutes.

[4] = single topical dose of 2% SADBE in DMSO to the arm, 56 days after dose vs day 1

CCCCOc1c(OCCCC)c(=O)c1=O [SADBE, squaric acid dibutyl ester]
PBMC gene expression or proliferation measures vs day 1 ([1]; 2 weeks after the one dose of 2% SADBE): did not differ | IFNG expression in PBMCs in the presence of HSV-1 virus [1, 4]: increasing | IL5 expression in PBMCs in the presence of HSV-1 virus [1, 4]: decreasing | treatment of common warts and alopecia areata [2]: used successfully | SADBE as % of expected (remaining in patch) ([3]; 2% patches, range of 10 patches): 0.0-1.3% | SADBE as % of expected (remaining in patch) ([3]; 6% patches, average of 10 patches): 11% and 10.67% | SADBE as % of expected (remaining in patch) ([3]; 6% patches, range of 10 patches): 2.7-22.7% | SADBE as % of expected (remaining in patch) ([3]; 18% patches, average of 10 patches): 34% and 34.13% | SADBE as % of expected (remaining in patch) ([3]; 18% patches, range of 10 patches): 23.0-46.5%
